Assay results from US11617733B2, “Bicyclic compound and use thereof for medical purposes” (ONO PHARMACEUTICAL CO., LTD., priority 2009, dated 2023).
pEC50: −log10 of the molar value.

Experiments:
[1] = target: T1, mouse IP receptor (Mus musculus, UniProt P43252); assay: IP agonist activity (cAMP concentration) in IP-CHO cells; assay type: cell-based; conditions: for pEC50: IP-CHO cells, cAMP production, read-out: Agonist activity on various prostanoid receptors: EC50 value, IP
T1 construct: expressed in transfected cells; host or cells: CHO cells (IP-CHO)
T1 sequence (P43252 whole entry): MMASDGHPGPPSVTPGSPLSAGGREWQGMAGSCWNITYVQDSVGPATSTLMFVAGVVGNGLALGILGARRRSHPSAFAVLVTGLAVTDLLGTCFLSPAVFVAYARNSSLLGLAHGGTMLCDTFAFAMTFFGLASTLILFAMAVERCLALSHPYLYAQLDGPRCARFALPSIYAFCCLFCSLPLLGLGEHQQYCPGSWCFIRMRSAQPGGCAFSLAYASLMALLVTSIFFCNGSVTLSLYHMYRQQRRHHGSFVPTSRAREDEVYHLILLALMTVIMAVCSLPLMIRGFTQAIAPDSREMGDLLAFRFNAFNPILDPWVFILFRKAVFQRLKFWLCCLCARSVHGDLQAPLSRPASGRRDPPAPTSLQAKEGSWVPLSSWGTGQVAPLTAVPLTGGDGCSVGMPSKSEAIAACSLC
Description: (§1) (1-1) Measurement of Agonist Activity on Various Mouse Prostanoid Receptors
(§2) Using CHO cells (FP-CHO, EP1-CHO and IP-CHO, respectively) in which various mouse prostanoid receptors were forcibly expressed, respectively, agonist activity of test compounds on various prostanoid receptors was studied employing an intracellular calcium concentration regarding FP and EP1, and an intracellular cyclic AMP (hereinafter, abbreviated as cAMP) production amount regarding IP, as an index.
(§3) The test compound and a control substance (PGE2 and iroprost) were dissolved with dimethyl sulfoxide (DMSO) to prepare a 10 mmol/L solution. Regarding the prepared 10 mmol/L solution, upon use, the 10 mmol/L solution was thawed, stepwisely-diluted using DMSO, and diluted with a buffer solution for measurement or a buffer solution for measurement 2, which was subjected to an experiment.
(§4) Cells forcibly expressing various mouse prostanoid receptors were standing-cultured at 37° C. in the presence of 5% CO2 using an α-MEM medium (Sigma) (for culturing FP-CHO and EP1-CHO) containing inactivated (56° C., 30 minutes) 9.8 vol % dialysed-FBS (Invitrogen) and penicillin-streptomycin-glutamine (GIBCO-BRL), or nucleic acid-containing α-MEM (Sigma) (for culturing IP-CHO) containing inactivated (56° C., 30 minutes) 9.8 vol % dialysed-FBS (Invitrogen) and penicillin-streptomycin glutamine (Invitrogen). Subculturing was performed by the following method.
(§5) The medium was removed, and washed with a phosphate-buffered physiological saline not containing Ca^2+ and Mg^2+ two times. A suitable amount of trypsin-EDTA (Invitrogen) was added, this was incubated at 37° C. for about 3 minutes, cells were peeled, and a medium having a volume which is 10-fold a volume of trypsin-EDTA was added to stop an enzymatic reaction. After cells were recovered (120 g) into a centrifuging tube, and centrifuged at room temperature for 3 minutes, the supernatant was removed. Cells were suspended in a suitable amount of a medium, and seeded in a culturing flask.
(1-3) Measurement of IP Agonist Activity (Measurement of cAMP Concentration)
On the measurement day, a medium was removed, and IP-CHO was washed with a phosphate-buffered physiological saline containing 2 mmol/L EDTA and not containing Ca^2+ and Mg^2+ once. A suitable amount of a phosphate-buffered physiological containing 2 mmol/L EDTA and not containing Ca^2+ and Mg^2+ was added, this was incubated at 37° C. for about 10 minutes, cells were peeled, cells were recovered (500 g) into a centrifuging tube, and centrifuged at room temperature for 3 minutes, and the supernatant was removed.
Cells were suspended in a suitable amount of a buffer solution for measurement 1 (MEM medium (Invitrogen) containing 0.1 w/v % bovine serum albumin (Sigma) and 2 μmol/L diclofenac (Sigma)), and centrifuged at room temperature for 3 minutes at 500 g, and the supernatant was removed. Cells were suspended in a buffer solution for measurement 2 (MEM medium (Invitrogen) containing 0.1 w/v % bovine serum albumin (Sigma), 2 μmol/L diclofenac (Sigma) and 1 mmol/L 3-isobutyl-1-methylxanthine), and each 25 μL of the suspension was dispensed into a 96-well ½ area plate so that the cell number per well became 5.0×10^4. A buffer solution for measurement 2 (25 μL) containing an agonist at a variety of concentrations was added to perform a reaction at room temperature for 30 minutes. Measurement of a cAMP concentration was performed using the cAMP HTRF HiRange kit (CIS bio International). According to the two step protocol of the kit manual, each 25 μL of cAMP-D2 and cryptate diluted with a lysis buffer were added, and this was incubated at room temperature for 1 hour. After incubation for 1 hour, time resolution fluorescence at 620 nm and 660 nm when excited at 340 nm was measured using Analyst GF (Molecular Device), and a ratio (TRF ratio) was obtained, thereby, a cAMP concentration was calculated from a calibration line. […]

[2] = target: T2, mouse FP receptor (Mus musculus, UniProt P43117); assay: FP agonist activity (intracellular calcium concentration) in FP-CHO cells; assay type: cell-based; conditions: for pEC50: FP-CHO cells, intracellular calcium concentration, read-out: Agonist activity on various prostanoid receptors: EC50 value, FP
T2 construct: expressed in transfected cells; host or cells: CHO cells (FP-CHO)
T2 sequence (P43117 whole entry): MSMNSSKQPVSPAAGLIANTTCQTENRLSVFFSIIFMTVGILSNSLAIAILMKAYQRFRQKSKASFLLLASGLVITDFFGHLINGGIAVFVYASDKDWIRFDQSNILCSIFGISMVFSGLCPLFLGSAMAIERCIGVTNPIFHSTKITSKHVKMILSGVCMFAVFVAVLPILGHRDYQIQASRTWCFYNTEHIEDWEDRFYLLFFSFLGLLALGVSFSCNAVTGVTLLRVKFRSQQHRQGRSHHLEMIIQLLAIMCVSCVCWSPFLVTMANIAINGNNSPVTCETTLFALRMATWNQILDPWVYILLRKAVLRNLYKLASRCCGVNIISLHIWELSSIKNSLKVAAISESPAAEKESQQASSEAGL
Description: as §1, §2, §3, §4, §5
(§6) (1-2) Measurement of FP and EP1 Agonist Activity (Measurement of Intracellular Calcium Concentration)
(§7) Regarding FP-CHO and EP1-CHO, by the same method as that of subculturing, cells were peeled and suspended and, before two days from measurement, the suspension was seeded on a 96-well UV plate so that the cell number per well became 1.0×10^4, and standing-cultured at 37° C. in the presence of 5% CO2. On the measurement day, after the medium was removed from each well of the 96-well UV plate, each well was washed with a phosphate-buffered physiological saline not containing Ca^2+ and Mg^2+ once. To each well was added 100 μL of a medium containing 5 μmol/L fura 2-AM (DOJINDO), 2.5 mmol/L Probenecid (Sigma), 20 μmol/L indometacin (Sigma) and 10 mmol/L HEPES (Invitrogen), and this was incubated for about 60 minutes in a CO2 incubator. After completion of the incubation, the medium was removed, and this was washed with a buffer solution for measurement (Hank's balanced salt solution (Nissui Pharmaceutical Co., Ltd., 9.8 g of the present product was dissolved in 1 L distilled water) containing 0.1 or 1 w/v % bovine serum albumin, 2 μmol/L indometacin, 2.5 mmol/L Probenecid and 10 mmol/L HEPES-NaOH (pH 7.4)) two times. To each well was added 120 μL of a buffer solution for measurement, and this was allowed to stand in a CO2 incubator for 30 minutes, and stabilized, which was subjected to an experiment.
(§8) The 96-well UV plate was set in a fluorescent spectral photometer (FDSS-3000, Hamamatsu Photonics K.K.), and an intracellular calcium concentration was measured. A buffered solution for measurement ([…]) containing an agonist at a variety of concentrations was added to perform a reaction. Measurement of an intracellular calcium concentration was performed by irradiating cells with excited light of 340 nm and 380 nm alternately, measuring a fluorescent intensity at 500 nm, and obtaining a fluorescent intensity ratio of 2-wavelength excitation. […]

[3] = target: T3, mouse EP1 receptor (Mus musculus, UniProt P35375); assay: EP1 agonist activity (intracellular calcium concentration) in EP1-CHO cells; assay type: cell-based; conditions: for pEC50: EP1-CHO cells, intracellular calcium concentration, read-out: Agonist activity on various prostanoid receptors: EC50 value, EP1
T3 construct: expressed in transfected cells; host or cells: CHO cells (EP1-CHO)
T3 sequence (P35375 1-405): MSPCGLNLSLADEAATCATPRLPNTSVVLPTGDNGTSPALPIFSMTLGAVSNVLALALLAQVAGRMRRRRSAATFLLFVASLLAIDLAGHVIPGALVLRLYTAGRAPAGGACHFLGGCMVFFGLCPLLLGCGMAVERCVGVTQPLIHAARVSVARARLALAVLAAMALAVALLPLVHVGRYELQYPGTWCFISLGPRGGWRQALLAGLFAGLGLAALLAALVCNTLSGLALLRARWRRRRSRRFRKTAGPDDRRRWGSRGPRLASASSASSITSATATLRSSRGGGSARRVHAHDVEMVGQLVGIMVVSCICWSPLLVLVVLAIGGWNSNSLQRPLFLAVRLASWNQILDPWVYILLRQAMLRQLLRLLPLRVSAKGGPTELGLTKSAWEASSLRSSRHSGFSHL
Description: as §1, §2, §3, §4, §5, §6, §7, §8

[4] = tested on: male dog (TOYO Beagle); assay: Intraocular pressure lowering action in dog after ocular instillation; assay type: in vivo
Procedure: (2-1) Intraocular Pressure Lowering Action
To one eye of a male dog (TOYO Beagle) which had been sufficiently acclimated in advance was ocular-instilled 30 μL of each test compound (compound of Example 16 (35), compound of Example 16 (3) and compound of Example 16(25)) which had been adjusted with a base (containing citrate buffer pH 6.5, 0.5% polysorbate 80, 1% propylene glycol, 0.01% benzalkonium chloride) to 0.01% (w/v) or 0.001% (w/v), respectively. The other eye was not treated. As a positive control compound, latanoprost which is the known compound was used.
Thereafter, an ocular surface anesthetic (Benoxil eye drops 0.4%, Santen Pharmaceutical Co., Ltd.) was subjected to ocular instillation to locally anesthetize eyes, and an intraocular pressure of each test compound before ocular instillation and after 2, 4, 6, 8, and 24 hours from ocular instillation was measured. An intraocular pressure was measured using a pneumatic applanation flat tonometer (Model 30 Classic, REICHERT). An intraocular pressure lowering rate (%) was calculated by the following equation. Intraocular pressure lowering rate (%)=(intraocular pressure value before ocular instillation−intraocular pressure value at each point)/(intraocular pressure value before ocular instillation)×100 [Mathematic 1]

[5] = tested on: male rabbit (NewZealandWhite); assay: Aqueous humor protein concentration in rabbit after ocular instillation; assay type: in vivo; conditions: ocular instillation 30 μL, 0.1% (w/v), 0-8 hours
Procedure: (2-2) Assessment of Ocular Stimulating Property and Aqueous Humor Protein Concentration
To one eye of a male rabbit (NewZealandWhite, 2.0 to 3.0 kg) was ocular-instilled 30 μL of the compound of Example 16 (35), the compound of Example 16 (3) and the compound of Example 16 (25) which had been adjusted to 0.1% (w/v) with a base (containing citrate buffer pH 6.5, 0.5% polysorbate 80, 1% propylene glycol, 0.01% benzalkonium chloride), respectively. Thereafter, an aqueous humor in anterior chamber after 0, 1, 2, 4, 6 and 8 hours from ocular instillation was collected, and a protein concentration in the humor was measured. As a comparative compound, the aforementioned methyl ester of the compound of Example 12 described in Patent Literature 2 (i.e. compound of Example 10 described in Patent Literature 2) (hereinafter, abbreviated as Comparative Compound B in some cases) was used.
Regarding any test compound, a dose until a dissolution limit (150 to 1000 μg/mL) was administered and action of each active body was assessed.

Row | Compound | Agonist activity on an IP receptor (in words) ([1]; summary of Table 7) | Agonist activity on a FP receptor (in words) ([2]; summary of Table 7) | Agonist activity on an EP1 receptor (in words) ([3]; summary of Table 7) | pEC50 [1] | pEC50 [2] | pEC50 [3] | Intraocular pressure lowering action compared with positive control latanoprost (in words) [4] | Action on protein concentration in aqueous humor (in words) [5]
1 | O=C(O)CCC[C@H]1CC[C@@H]2[C@@H](/C=C/[C@@H](O)COc3ccccc3)[C@H](O)C[C@@H]2O1 [Comparative Compound A, reference compound] | has agonist activity | has agonist activity | has agonist activity | – | – | – | – | –
2 | CC(C)OC(=O)CCC[C@H]1CC[C@@H]2[C@@H](/C=C/[C@@H](O)COc3cccc(Cl)c3)[C@H](O)C[C@@H]2OC1 [Example 16 (3), 2-Propanyl 4-{(3S, 5aR, 6R, 7R, 8aS)-6-[(1E, 3R)-4-(3-chlorophenoxy)-3-hydroxy-1-buten-1-yl]-7-hydroxyoctahydro-2H-cyclopenta[b]oxepin-3-yl}butanoate] | – | – | – | – | – | – | stronger intraocular pressure lowering action as compared with latanoprost | no action of raising a protein concentration in an aqueous humor
3 | O=C(O)CCC[C@H]1CC[C@@H]2[C@@H](/C=C/[C@@H](O)COc3cc(F)ccc3F)[C@H](O)C[C@@H]2OC1 [Example 17 (25), 4-{(3S, 5aR, 6R, 7R, 8aS)-6-[(1E, 3R)-4-(2,5-difluorophenoxy)-3-hydroxy-1-buten-1-yl]-7-hydroxyoctahydro-2H-cyclopenta[b]oxepin-3-yl}butanoic acid] | – | – | – | < 5.00 | 8.62 | 6.07 | – | –
4 | O=C(O)COC[C@H]1CC[C@@H]2[C@@H](/C=C/[C@@H](O)COc3cc(F)cc(Cl)c3)[C@H](O)C[C@@H]2OC1 [Example 29 (12), ({(3R, 5aR, 6R, 7R, 8aS)-6-[(1E,3R)-4-(3-chloro-5-fluorophenoxy)-3-hydroxy-1-buten-1-yl]-7-hydroxyoctahydro-2H-cyclopenta[b]oxepin-3-yl}methoxy)acetic acid] | – | – | – | < 5.00 | 8.15 | < 5.00 | – | –
5 | O=C(O)CCC[C@H]1CC[C@@H]2[C@@H](/C=C/C(F)(F)COc3ccccc3)[C@H](O)C[C@@H]2OC1 [Example 32, 4-{(3S, 5aR, 6R, 7R, 8aS)-6-[(1E)-3,3-difluoro-4-phenoxy-1-buten-1-yl]-7-hydroxyoctahydro-2H-cyclopenta[b]oxepin-3-yl}butanoic acid] | – | – | – | < 5.00 | 8.80 | < 5.00 | – | –

The next lines start with results.

Row | Agonist activity on an IP receptor (in words) ([1]; summary of Table 7) | Agonist activity on a FP receptor (in words) ([2]; summary of Table 7) | Agonist activity on an EP1 receptor (in words) ([3]; summary of Table 7) | pEC50 [1] | pEC50 [2] | pEC50 [3] | Compound | Intraocular pressure lowering action compared with positive control latanoprost (in words) [4] | Action on protein concentration in aqueous humor (in words) [5]
6 | – | – | – | < 5.00 | 8.52 | 5.49 | O=C(O)CCC[C@H]1CC[C@@H]2[C@@H](/C=C/[C@@H](O)COc3cccc(Cl)c3)[C@H](O)C[C@@H]2OC1 [Example 17 (3), 4-{(3S, 5aR, 6R, 7R, 8aS)-6-[(1E, 3R)-4-(3-chlorophenoxy)-3-hydroxy-1-buten-1-yl]-7-hydroxyoctahydro-2H-cyclopenta[b]oxepin-3-yl}butanoic acid] | – | –
7 | – | – | – | < 5.00 | 8.06 | < 5.00 | Cc1cccc(OC[C@H](O)/C=C/[C@@H]2[C@H]3CC[C@H](CCCC(=O)O)CO[C@H]3C[C@H]2O)c1 [Example 17 (4), 4-{(3S, 5aR, 6R, 7R, 8aS)-7-hydroxy-6-[(1E, 3R)-3-hydroxy-4-(3-methylphenoxy)-1-buten-1-yl]octahydro-2H-cyclopenta[b]oxepin-3-yl}butanoic acid] | – | –
8 | – | – | – | < 5.00 | 8.08 | 7.00 | O=C(O)CCC[C@H]1CC[C@@H]2[C@@H](/C=C/[C@@H](O)COc3ccccc3)[C@H](O)C[C@@H]2OC1 [Example 17 (23), 4-{(3S, 5aR, 6R, 7R, 8aS)-7-hydroxy-6-[(1E, 3R)-3-hydroxy-4-phenoxy-1-buten-1-yl]octahydro-2H-cyclopenta(b]oxepin-3-yl}butanoic acid] | – | –
